Like-named read-outs stand apart in the source and are kept apart here.
Legend:
gastric acid secretion = test: Gastric acid secretion inhibition activity (pylorus-ligated, histamine-stimulated rats); assay type: in vivo, Sprague-Dawley (SD) male rats; settings: Rattus norvegicus; 30 mg/kg oral; pylorus ligated 3 hours later; histamine hydrochloride 30 mg/kg s.c.; total acidity over 3 hours; read-out: Acid secretion inhibition rate (%)
Description: (Test Example 2) Gastric acid secretion inhibition activity
Basically according to the method of Satoh et (Journal of Pharmacology and Experimental Therapeutics, vol.248, pp.806-815, 1988), each of the compounds shown in Examples was orally administered at a dose of 30 mg/kg to Sprague-Dawley (SD) male rats which have been subjected to fasting of 24 hours (free drinking).
After 3 hours of the compound administration, the pylorus of each rat was ligated under urethane anesthesia, and 30 mg of histamine hydrochloride per Kg was administered to the rat by subcutaneous injection. After 3 hours of the ligation, the gastric juice was collected to measure its volume and calculate total acidity (mEqH^+ /3 hours) by sodium hydroxide titration. The inhibition rate (%) was calculated by the following formula in which A represents the total gastric juice acidity of control group rat and B represents the total gastric juice acidity of test compound-administered group rat. [formula]

Acute toxicity test = settings: mouse, in vivo; oral, mice, one week observation
Excerpt: (Test Example 6) Acute toxicity test
Each of the compounds shown in Examples was orally administered to three ICR male mice per group.

[1] = biological target: T1, H^+,K^+ adenosine triphosphatase (Sus scrofa, UniProt P19156); test: H+,K+ adenosine triphosphatase inhibition (proton pump inhibition); assay type: biochemical, hog
T1 construct: hog stomach was homogenized and subjected to ultracentrifugation to obtain a microsome fraction; from tissue; host or cells: hog stomach, microsome fraction (discontinuous Ficoll gradient)
Description: Proton pump inhibition was evaluated by the H^+,K^+ adenosine triphosphatase (to be referred to as "H^+,K^+ ATPase" hereinafter)inhibition.
That is, hog stomach was homogenized and subjected to ultracentrifugation to obtain a microsome fraction, and the microsomes were subjected to discontinuous density gradient ultracentrifugation using 0 and 9% Ficoll solutions to obtain a fraction containing H^+,K^+ ATPase. The H^+,K^+ ATPase activity was determined by measuring the released inorganic phosphorus using ATP as the substrate and an inorganic phosphorus measuring reagent PiSET(IATRON) manufactured by IATRON.

Pylorus ligation ulcer = test: Pylorus ligation ulcer; assay type: in vivo, Wistar male rats; settings: Rattus norvegicus; oral, 14 hours after pylorus ligation; read-out: Antiulcer activity, Pylorus ligation ulcer, ED50 value
Description: (Test Example 4) Pylorus ligation ulcer
Basically according to the method of Shay et al. (Gastroenterology, vol.5, pp.43-61, 1945), each of the compounds shown in Examples was orally administered to Wistar male rats which have been subjected to fasting of 48 hours (free drinking). After 30 minutes of the compound administration,the pylorus of each rat was ligated.
After 14 hours of standing, the stomach was excised. The length and width of each ulcer developed in the fore-stomach part were measured under a stereoscopic microscope to calculate the ulcer area (length×width). In accordance with the method of Takagi et al. (Japan. J. Pharmacol., vol.24, pp.357-361, 1974), ulcer index was calculated based on the total ulcer area per animal. The dose of each test compound required to inhibit 50% of the ulcer index of the control group was calculated (ED50).

Stress ulcer = test: Stress ulcer; assay type: in vivo, Wistar male rats; settings: Rattus norvegicus; oral, 7 hours stress loading in water bath at 23° C.; read-out: Antiulcer activity, Stress ulcer, ED50 value
Description: (Test Example 3) Stress ulcer
Basically according to the method of Takagi et al. (Japanese Journal of Pharmacology (to be referred to as "Japan. J. Pharmacol." hereinafter), vol.18, pp.9-18, each of the compounds shown in Examples was orally administered to Wistar male rats which have been subjected to fasting of 24 hours (free drinking). Each rat was transferred into a stress cage 30 minutes thereafter and subjected to stress loading by suspending the cage in a water bath controlled at 23° C. to such a depth that the rat was soaked up to its breast.
After 7 hours of the stress loading, the rat was recovered from the water bath to excise the stomach. The length (mm) of each ulcer developed in the stomach was measured under a stereoscopic microscope, and the total length of ulcers per one animal was used as an ulcer index. The dose of each test compound required to inhibit 50% of the ulcer index of the control group was calculated (ED50). The results are shown in Table 3, together with the results of the following pylorus ligation ulcer test.

[2] = H+,K+ ATPase fraction from hog stomach microsomes, ATP substrate, released inorganic phosphorus, read-out: Enzyme inhibition IC50 value (converted)

T1 sequence (P19156 2-1034 limits assumed): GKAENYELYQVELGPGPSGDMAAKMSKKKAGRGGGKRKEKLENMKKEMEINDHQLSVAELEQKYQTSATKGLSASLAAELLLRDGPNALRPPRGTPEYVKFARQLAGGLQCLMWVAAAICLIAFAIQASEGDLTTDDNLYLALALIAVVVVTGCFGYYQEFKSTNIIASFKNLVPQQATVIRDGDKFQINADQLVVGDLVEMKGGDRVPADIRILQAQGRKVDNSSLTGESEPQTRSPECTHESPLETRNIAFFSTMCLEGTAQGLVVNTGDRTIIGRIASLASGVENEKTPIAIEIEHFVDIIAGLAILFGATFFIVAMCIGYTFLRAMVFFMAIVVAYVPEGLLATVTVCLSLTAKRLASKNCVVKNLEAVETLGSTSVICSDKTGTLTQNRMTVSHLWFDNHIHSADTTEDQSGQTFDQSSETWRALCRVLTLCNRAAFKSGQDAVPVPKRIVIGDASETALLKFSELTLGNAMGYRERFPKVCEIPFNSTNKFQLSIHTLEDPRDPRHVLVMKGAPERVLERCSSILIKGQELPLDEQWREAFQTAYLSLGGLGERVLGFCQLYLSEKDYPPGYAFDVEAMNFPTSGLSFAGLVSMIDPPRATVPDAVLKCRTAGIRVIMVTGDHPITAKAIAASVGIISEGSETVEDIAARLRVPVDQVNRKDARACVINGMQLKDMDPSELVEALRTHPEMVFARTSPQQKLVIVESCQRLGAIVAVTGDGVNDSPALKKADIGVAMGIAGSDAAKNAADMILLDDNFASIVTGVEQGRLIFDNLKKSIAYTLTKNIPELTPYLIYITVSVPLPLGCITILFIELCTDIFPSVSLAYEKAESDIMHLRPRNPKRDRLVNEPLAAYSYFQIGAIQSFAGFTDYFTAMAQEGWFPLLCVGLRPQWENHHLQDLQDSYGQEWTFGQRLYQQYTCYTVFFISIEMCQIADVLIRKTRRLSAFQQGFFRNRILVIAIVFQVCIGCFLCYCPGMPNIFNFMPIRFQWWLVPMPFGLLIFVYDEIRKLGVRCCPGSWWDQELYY
T1 sequence (P18434 whole entry partner): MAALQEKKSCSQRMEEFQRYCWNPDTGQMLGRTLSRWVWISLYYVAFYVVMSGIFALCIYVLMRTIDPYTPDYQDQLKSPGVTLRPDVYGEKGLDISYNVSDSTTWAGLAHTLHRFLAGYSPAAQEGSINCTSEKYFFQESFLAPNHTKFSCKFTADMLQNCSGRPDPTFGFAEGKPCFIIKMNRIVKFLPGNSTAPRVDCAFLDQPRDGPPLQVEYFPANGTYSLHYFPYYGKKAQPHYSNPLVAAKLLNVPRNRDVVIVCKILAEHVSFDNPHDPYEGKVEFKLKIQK

## CCCOCC#Cc1nc(C(=O)OC)c(C(=O)OC)nc1C#CCOCCC [Example 1, 5,6-bis(3-n-propoxy-1-propynyl)pyrazine-2,3-dicarboxylic acid dimethyl ester]
Gastric acid secretion
  inhibition in vivo at 30 mg/kg: 50%
Acute toxicity test
  LD50 at 168 h: > 1000 mg/kg
[1]; [2]
  IC50: 87.5 µM
Pylorus ligation ulcer
  ED50: 28 mg/kg

## COCCCC#Cc1nc(C(=O)OC)c(C(=O)OC)nc1C#CCCCOC [Example 2, 5,6-bis(5-methoxy-1-pentynyl)pyrazine-2,3-dicarboxylic acid dimethyl ester]
Gastric acid secretion
  inhibition in vivo at 30 mg/kg: 66%
Acute toxicity test
  LD50 at 168 h: > 1000 mg/kg
Stress ulcer
  ED50: 60 mg/kg
Pylorus ligation ulcer
  ED50: 66 mg/kg

## CCCOCC#Cc1nc(C(=O)O)c(C(=O)O)nc1C#CCOCCC [Example 5, 5,6-bis(3-n-propoxy-1-propynyl)pyrazine-2,3-dicarboxylic acid]
Gastric acid secretion
  inhibition in vivo at 30 mg/kg: 61%

## COCCC#Cc1nc2ccccc2nc1C#CCCOC [Example 12, 2,3-bis(4-methoxy-1-butynyl)quinoxaline]
Gastric acid secretion
  inhibition in vivo at 30 mg/kg: 41%
Acute toxicity test
  LD50 at 168 h: > 1000 mg/kg
Stress ulcer
  ED50: 24 mg/kg
[1]; [2]
  IC50: 279 µM

## CCOC(C)(C)C#Cc1nc2ccccc2nc1C#CC(C)(C)OCC [Example 13, 2,3-bis(3-ethoxy-3-methyl-1-butynyl)quinoxaline]
[1]; [2]
  IC50: 31.4 µM

## CC[C@@H](C#Cc1nc2ccccc2nc1C#C[C@H](CC)OCCOC)OCCOC [Example 18, 2,3-bis((S)-3-(2-methoxyethoxy)-1-pentynyl)quinoxaline]
[1]; [2]
  IC50: 124 µM

## CC[C@H](C#Cc1nc2ccccc2nc1C#C[C@@H](CC)OCCOC)OCCOC [Example 19, 2,3-bis((R)-3-(2-methoxyethoxy)-1-pentynyl)quinoxaline]
Gastric acid secretion
  inhibition in vivo at 30 mg/kg: 28%

## CC[C@@H](C#Cc1nc2ccccc2nc1C#C[C@@H](CC)OCCOC)OCCOC [Example 21, 2-((R)-3-(2-methoxyethoxy)-1-pentynyl)-3-((S)-3-(2-methoxyethoxy)-1-pentynyl)quinoxaline]
[1]; [2]
  IC50: 102 µM

## CCOCCO[C@H](C#Cc1nc2ccccc2nc1C#C[C@H](CC)OCCOCC)CC [Example 22, 2,3-bis((S)-3-(2-ethoxyethoxy)-1-pentynyl)quinoxaline]
[1]; [2]
  IC50: 29.6 µM

## CCOCCO[C@@H](C#Cc1nc2ccccc2nc1C#C[C@@H](CC)OCCOCC)CC [Example 23, 2,3-bis((R)-3-(2-ethoxyethoxy)-1-pentynyl)quinoxaline]
[1]; [2]
  IC50: 54.7 µM

## CCOCCO[C@H](C#Cc1nc2ccccc2nc1C#C[C@@H](CC)OCCOCC)CC [Example 25, 2-((R)-3-(2-ethoxyethoxy)-1-pentynyl)-3-((S)-3-(2-ethoxyethoxy)-1-pentynyl)quinoxaline]
[1]; [2]
  IC50: 34.2 µM

## COC1(C#Cc2nc3ccccc3nc2C#CC2(OC)CCCC2)CCCC1 [Example 26, 2,3-bis(2-(1-methoxycyclopentyl)ethynyl)quinoxaline]
[1]; [2]
  IC50: 32 µM

## CCOC(C)C#Cc1nc2ccccc2nc1Cl (centres unmarked) [Example 29, 2-chloro-3-(3-ethoxy-1-butynyl)quinoxaline]
[1]; [2]
  IC50: 215 µM

## COCCOCC#Cc1nc2ccccc2nc1C(C)(C)C [Example 30, 2-t-butyl-3-(3-(2-methoxyethoxy)-1-propynyl)quinoxaline]
[1]
  IC50: 60.3 µM

## CCOC(C)C#Cc1nc2ccc(C(C)=O)cc2nc1C#CC(C)OCC (centres unmarked) [Example 33, 6-acetyl-2,3-bis(3-ethoxy-1-butynyl)quinoxaline]
Gastric acid secretion
  inhibition in vivo at 30 mg/kg: 23%
[1]; [2]
  IC50: 9.88 µM

## COC(=O)c1nc(C#CC(C)OC)c(C#CC(C)OC)nc1C(=O)OC (centres unmarked) [Example 53]
[1]; [2]
  IC50: 5.27 µM

## COCCOC(C)C#Cc1nc(C(=O)OC)c(C(=O)OC)nc1C#CC(C)OCCOC (centres unmarked) [Example 56]
Gastric acid secretion
  inhibition in vivo at 30 mg/kg: 80%
Stress ulcer
  ED50: 12 mg/kg
[1]; [2]
  IC50: 13.4 µM
Pylorus ligation ulcer
  ED50: 17 mg/kg

## COC(=O)c1nc(C#CC(OC)OC)c(C#CC(OC)OC)nc1C(=O)OC [Example 59]
Gastric acid secretion
  inhibition in vivo at 30 mg/kg: 79%
Acute toxicity test
  LD50 at 168 h: > 1000 mg/kg
Stress ulcer
  ED50: 18 mg/kg
[1]; [2]
  IC50: 8.92 µM
Pylorus ligation ulcer
  ED50: 21 mg/kg

## CCC#Cc1nc(C(=O)OC)c(C(=O)OC)nc1C#CC(C)OC (centres unmarked) [Example 62]
Gastric acid secretion
  inhibition in vivo at 30 mg/kg: 69%
[1]; [2]
  IC50: 5.15 µM

## CCOC(=O)c1nc(C#CCOC)c(C#CCOC)nc1C(=O)OCC [Example 69]
Gastric acid secretion
  inhibition in vivo at 30 mg/kg: 70%

## COC(C)C#Cc1nc(C#N)c(C#N)nc1C#CC(C)OC (centres unmarked) [Example 73]
[1]; [2]
  IC50: 1.7 µM

## CCCC#Cc1nc(C#N)c(C#N)nc1C#CCCOC [Example 77]
Gastric acid secretion
  inhibition in vivo at 30 mg/kg: 55%
[1]; [2]
  IC50: 1.44 µM

## CCCCC#Cc1nc(C#N)c(C#N)nc1C#CCCCC [Example 89]
[1]; [2]
  IC50: 0.344 µM

## CSCCC#Cc1nc(C#N)c(C#N)nc1C#CCCSC [Example 95]
[1]; [2]
  IC50: 0.613 µM

## CCCCC#Cc1nc(C#N)c(C#N)nc1C(=O)OCC [Example 101]
[1]
  IC50: 5.31 µM

## CCCCC#Cc1nc(C#N)c(C#N)nc1C(F)(F)F [Example 102]
[1]
  IC50: 3.95 µM

## COCC#Cc1nc2ccccc2nc1C#CCOC [Example 107]
Stress ulcer
  ED50: 29 mg/kg
Pylorus ligation ulcer
  ED50: 30 mg/kg

## CCOCC#Cc1nc2ccccc2nc1C#CCOCC [Example 108]
Acute toxicity test
  LD50 at 168 h: > 1000 mg/kg

## COC(C)C#Cc1nc2ccccc2nc1C#CC(C)OC (centres unmarked) [Example 111]
[1]; [2]
  IC50: 9.17 µM

## CCOCCOC(C)C#Cc1nc2ccccc2nc1C#CC(C)OCCOCC (centres unmarked) [Example 113]
Acute toxicity test
  LD50 at 168 h: > 1000 mg/kg

## CCOC(C#Cc1nc2ccccc2nc1C#CC(CC)OCC)CC (centres unmarked) [Example 115]
Acute toxicity test
  LD50 at 168 h: > 1000 mg/kg

## CCC(C#Cc1nc2ccccc2nc1C#CC(CC)OCCC(=O)OC)OCCC(=O)OC (centres unmarked) [Example 123]
[1]; [2]
  IC50: 87.9 µM

## CCC(C#Cc1cnc2ccccc2n1)OCCOC (centres unmarked) [Example 127]
[1]; [2]
  IC50: 326 µM

## CCOC(C)C#Cc1nc2ccc(OC)cc2nc1C#CC(C)OCC (centres unmarked) [Example 129]
[1]; [2]
  IC50: 25.3 µM

## COCCOCC#Cc1nc2ccc(OC)cc2nc1C#CCOCCOC [Example 133]
Gastric acid secretion
  inhibition in vivo at 30 mg/kg: 44%
[1]; [2]
  IC50: 20.8 µM

## CCOC(C)C#Cc1nc2cccc(OC)c2nc1C#CC(C)OCC (centres unmarked) [Example 140]
[1]; [2]
  IC50: 34 µM

## CCC(C#Cc1nc2cccc(C)c2nc1C#CC(CC)OCCOC)OCCOC (centres unmarked) [Example 144]
[1]; [2]
  IC50: 28.3 µM

## CCOC(C)C#Cc1nc2cc(OC)c(OC)cc2nc1C#CC(C)OCC (centres unmarked) [Example 145]
[1]; [2]
  IC50: 25.1 µM

## CCOCCOC(C#Cc1nc2ccc(CO)cc2nc1C#CC(CC)OCCOCC)CC (centres unmarked) [Example 151]
[1]; [2]
  IC50: 18.6 µM

## CCCOCCOC(C)(C)C#Cc1nc2ccccc2nc1C#CC(C)(C)OCCOCCC [Example 158, 2,3-bis(3-(2-n-propoxyethoxy)-3-methyl-1-butynyl)quinoxaline]
[1]; [2]
  IC50: 17.1 µM

## CCOCCOC(C)(C)C#Cc1nc2ccc(Cl)cc2nc1C#CC(C)(C)OCCOCC [Example 159, 6-chloro-2,3-bis(3-(2-ethoxyethoxy)-3-methyl-1-butynyl)quinoxaline]
[1]; [2]
  IC50: 16.7 µM

Source: patent US5583227A, “Antiulcer compounds having a substituted alkynyl or quinoxaline nucleus and methods of making thereof” (Mochida Pharmaceutical Co. Ltd., priority 1994, dated 1996)
